Data published in publication PMC9010562, “Designing a Novel Functional Peptide With Dual Antimicrobial and Anti-inflammatory Activities via in Silico Methods” (Frontiers in Immunology, 2022).
Ends that are not written are not given here.

Key:
BEAS-2B cells = assay: WST-8 cell viability assay; type: cell-based, human; conditions: WST-8, 24 h treatment
Text: (§1) Every strain used in the study was purchased from the Korean Culture Center of Microorganisms (KCCM, Seoul, Korea) or the American Type Culture Collection (ATCC, Manassas, VA, USA). The following bacterial strains were used in this study: Escherichia coli KCCM 11234 (E. coli), Pseudomonas aeruginosa ATCC 9027 (P. aeruginosa), Bacillus cereus KCCM 21366 (B. cereus), Staphylococcus aureus KCCM 11335 (S. aureus), and methicillin-resistant S. aureus ATCC 33591 (MRSA). Bacterial strains were maintained in tryptic soy broth (TSB, Difco Laboratories, Detroit, MI, USA) and cultured under shaking incubation at 37°C. In addition, the following human cell lines were used in this study: THP-1 monocytes (ATCC TIB-202), primary adipose-derived mesenchymal stem cell (hADMSC; CEFO Co., Seoul, Korea), normal bronchial epithelial cells BEAS-2B (ATCC CRL-9609), and lung carcinoma cells H460 (ATCC HTB-177). THP-1 and H460 cells were cultured in RPMI 1640 medium (Welgene Inc., Gyeongsan, Gyeongsangbuk-do, Korea) supplemented with 10% fetal bovine serum (Gibco), 1% penicillin and streptomycin (Gibco), and sodium pyruvate (Welgene Inc.). hADMSC and BEAS-2B cells were cultured in CEFOgro™ Human MSC Growth Medium (CEFO Co.) and BEGM™ Bronchial Epithelial Cell Growth Medium BulletKit™ (Lonza, Basel, Switzerland), respectively. The cells were maintained under humidified air with 5% CO2 at 37°C.
(§2) THP-1, hADMSC, BEAS-2B, and H460 cells were seeded in 96-well plates at a density of 1×10^5 cells/mL to evaluate the cytotoxic effect of the peptides. Different concentrations of peptide were treated and incubated for 24 h. Quanti-Max WST-8 Cell Viability assay solution (Biomax, Seoul, Korea) was added to each well, and then the plate was incubated for 1 h. The absorbance was read at 450 nm using a microplate reader (Molecular Devices), and the relative cell viability was calculated.

hADMSC cells = assay: WST-8 cell viability assay; type: cell-based, human; conditions: WST-8, 24 h treatment
Text: as §1, §2

THP-1 cells = assay: WST-8 cell viability assay; type: cell-based, human; conditions: WST-8, 24 h treatment
Text: as §1, §2

H460 cells = assay: WST-8 cell viability assay; type: cell-based, human; conditions: WST-8, 24 h treatment
Text: as §1, §2

bovine red blood cells = assay: Hemolytic activity; type: cell-based; conditions: bovine RBCs 4% (v/v) in PBS, peptide up to 50 μM, 37°C 1 h, relative to 0.1% Triton X-100 (100%), absorbance 450 nm
Protocol: The hemolytic activity of the peptide was tested using bovine red blood cells (RBCs) purchased from Innovative Research (Novi, MI, USA). RBCs were diluted in PBS to obtain a 4% (v/v) suspension and were aliquoted at 100 μL per microtube. The RBC suspensions were mixed with an equal volume of 2-fold peptides and incubated at 37°C for 1 h. PBS and 0.1% Triton X-100 served as the negative control (0% hemolysis) and positive control (100% hemolysis), respectively. The tubes were centrifuged at 3,000 × g for 10 min at 4°C, and the supernatants were transferred to a 96-well microplate. The absorbance (Ab) was measured at 450 nm using a microplate reader (Molecular Devices). The hemolytic activity of each peptide was calculated by (Abpeptide – AbPBS)/(AbTriton X-100 – AbPBS) × 100.

[1] = Serum stability test (SDS-PAGE); type: in vitro ADME; conditions: 25 μg peptide in 20 μL with 10% human serum (also 2%, 5%), 37°C, 12 h (also 1, 4 h); SDS-PAGE 12% gel, Coomassie staining
Protocol: Peptide stability in human serum (HS, Sigma-Aldrich) was tested by sodium dodecyl sulfate-polyacrylamide gel electrophoresis (SDS-PAGE) ([25]). 25 μg of peptides were incubated with 2%, 5%, and 10% of HS in a total volume of 20μL. The samples, peptide control, HS controls were incubated at 37°C for 1, 4, 12 h and were mixed with 5 × protein sample buffer. The samples were loaded in 12% SDS gel along with Prosi prestained protein marker (GenDEPOT, Katy, TX, USA). After separation, gels were stained with Coomassie Brilliant Blue R-250 staining solution (Bio-Rad, Hercules, CA, USA). Gels were destained and imaged by ChemiDoc™ Imaging Systems (Bio-Rad).

[2] = test system: methicillin-resistant S. aureus ATCC 33591 (MRSA); type: cell-based, Staphylococcus aureus; conditions: two-fold broth microdilution in MHB, 2×10^5 CFU/mL, 37°C, 18 h (24 h in the source), OD 600 nm; triplicate
Text: as §1, with “THP-1 and H460 cells were cultured in RPMI 1640 medium (Welgene Inc., Gyeongsan, Gyeongsangbuk-do, Korea) supplemented with 10% fetal bovine serum (Gibco), 1% penicillin and streptomycin (Gibco), and sodium pyruvate (Welgene Inc.). hADMSC and BEAS-2B cells were cultured in CEFOgro™ Human MSC Growth Medium (CEFO Co.) and BEGM™ Bronchial Epithelial Cell Growth Medium BulletKit™ (Lonza, Basel, Switzerland), respectively. The cells were maintained under humidified air with 5% CO2 at 37°C.” left out
Two-fold broth microdilution assays were performed to measure the MIC values of the peptides. […] The plates were incubated at 37°C for 18 h, and the bacterial growth was measured at 600 nm using a microplate reader (Molecular Devices, Sunnyvale, CA, USA). […] Relative colony formation was measured by counting colonies formed on agar plates, and was compared with the control plate for the relative expression.

[3] = test system: Staphylococcus aureus KCCM 11335; type: cell-based; conditions: two-fold broth microdilution in MHB, 2×10^5 CFU/mL, 37°C, 18 h (24 h in the source), OD 600 nm; triplicate
Text: as §1
(§3) Two-fold broth microdilution assays were performed to measure the MIC values of the peptides. In brief, the strains were grown to an exponential phase in MHB at 37°C and then diluted to reach 2×10^5 CFU/mL in fresh media. Peptides were serially diluted in PBS and then added of 50 μL/well to a 96-well plate. An equal volume of bacterial suspensions was added to each well, resulting in final concentrations of peptides ranging from 1 to 32 μM. The wells only with the medium served as blank, while adding the medium to inoculant was used as control. The plates were incubated at 37°C for 18 h, and the bacterial growth was measured at 600 nm using a microplate reader (Molecular Devices, Sunnyvale, CA, USA). […] To perform colony forming assay, different concentrations of peptides were mixed with an equal volume of bacterial suspensions, resulting in 2×10^5 CFU/mL. The samples were spread onto tryptic soy agar (TSA, Difco Laboratories) plates after 3 h incubation and incubated overnight at 37°C. Relative colony formation was measured by counting colonies formed on agar plates, and was compared with the control plate for the relative expression.

[4] = test system: Escherichia coli KCCM 11234; type: cell-based; conditions: two-fold broth microdilution in MHB, 2×10^5 CFU/mL, 37°C, 18 h (24 h in the source), OD 600 nm; triplicate
Text: as §1, §3

[5] = test system: Pseudomonas aeruginosa ATCC 9027; type: cell-based; conditions: two-fold broth microdilution in MHB, 2×10^5 CFU/mL, 37°C, 18 h (24 h in the source), OD 600 nm; triplicate
Text: as §1, §3

[6] = test system: Bacillus cereus KCCM 21366; type: cell-based; conditions: two-fold broth microdilution in MHB, 2×10^5 CFU/mL, 37°C, 18 h (24 h in the source), OD 600 nm; triplicate
Text: as §1, §3

Row | Sequence | Concentration from which a significant cytotoxic effect was seen, BEAS-2B (normal cell line) (BEAS-2B cells) [nM] | Concentration from which a significant cytotoxic effect was seen, hADMSC (primary cell line) (hADMSC cells) [nM] | Concentration from which a significant cytotoxic effect was seen, THP-1 (THP-1 cells) [nM] | Concentration from which cell viability was significantly affected, H460 (H460 cells) [nM] | Hemolysis (bovine red blood cells) | Stability in human serum [1] | MIC MRSA [2] [µM] | MIC S. aureus [3] [µM] | MIC E. coli [4] [µM] | MIC P. aeruginosa [5] [µM] | MIC B. cereus [6] [µM] | Concentration up to which cell viability was not affected, BEAS-2B (BEAS-2B cells) [nM] | Concentration up to which cell viability was not affected, hADMSC (hADMSC cells) [nM] | Concentration up to which cell viability was not affected, THP-1 (THP-1 cells) [nM] | Concentration up to which cell viability was not affected, H460 (H460 cells) [nM]
1 | FKGLAKLLKIGLKALAKVIQ [Ak-N’] | 2000 | 2000 | 5000 | 500 | over 50% | exhibited stability | 2 | 0.2 | 2 | 2 | 4 |  |  |  | 
2 | NKGLAKLLKIGLKALESVIQ [Ak-N’m] |  |  |  |  | below 5% | exhibited stability | 32 | 8 | 2 | 8 | 32 | 2000 | 2000 | 10000 | 2000
